Data reported in patent publication US6833456B2, “Indolyl-urea derivatives of thienopyridines useful as antiangiogenic agents, and methods for their use” (Agouron Pharmaceuticals, Inc., priority 2002, dated 2004).
Values joined by “and” are separate entries in the source; they are usually repeats but may differ in a detail not shown here. Equal entries are not always repeated.

Legend:
[1] = test system: human umbilical vein endothelial cells (HUVEC); assay: HUVEC+VEGF proliferation assay; assay type: cell-based; details: Homo sapiens, HUVEC, 72 h, VEGF 6 ng/mL, MTT
Protocol: This assay determines the ability of a test compound to inhibit the growth factor-stimulated proliferation of human umbilical vein endothelial cells (“HUVEC”). HUVEC cells (passage 3-4, Clonetics, Corp.) were thawed into EGM2 culture medium (Clonetics Corp) in T75 flasks. Fresh EGM2 medium was added to the flasks 24 hours later. Four or five days later, cells were exposed to another culture medium (F12K medium supplemented with 10% fetal bovine serum (FBS), 60 μg/mL endothelial cell growth supplement (ECGS), and 0.1 mg/mL heparin). Exponentially-growing HUVEC cells were used in experiments thereafter. Ten to twelve thousand HUVEC cells were plated in 96-well dishes in 100 μl of rich, culture medium (described above). The cells were allowed to attach for 24 hours in this medium. The medium was then removed by aspiration and 105 μl of starvation media (F12K+1% FBS) was added to each well. After 24 hours, 15 μl of test agent dissolved in 1% DMSO in starvation medium or this vehicle alone was added into each treatment well; the final DMSO concentration was 0.1%. One hour later, 30 μl of VEGF (30 ng/mL) in starvation media was added to all wells except those containing untreated controls; the final VEGF concentration was 6 ng/mL. Cellular proliferation was quantified 72 hours later by MTT dye reduction, at which time cells were exposed for 4 hours MTT (Promega Corp.). Dye reduction was stopped by addition of a stop solution (Promega Corp.) and absorbance at 595 nm was determined on a 96-well spectrophotometer plate reader.

[2] = target: T1, PDGFRβ (Homo sapiens, UniProt P09619); assay: PAE-PDGFRβ phosphorylation in PAE-PDGFRB cells assay; assay type: cell-based; details: PAE cells overexpressing human PDGFRβ, PDGF-BB stimulated; read-out: PAE PDGFR autophos IC50
T1 construct: expressed in transfected cells; host or cells: porcine aorta endothelial (PAE) cells
Protocol: This assay determines the ability of a test compound to inhibit the autophosphorylation of PDGFRβ in porcine aorta endothelial (PAE)-PDGFRβ cells. PAE cells that overexpress human PDGFRβ were used in this assay. The cells were cultured in Ham's F12 media supplemented with 10% fetal bovine serum (FBS) and 400 ug/ml G418. Twenty thousands cells were seeded in each well of a 96-well plate in 50 μL of growth media and allowed to attach for 6 hours at 37° C. Cells were then exposed to the starvation media (Ham's F12 media supplemented with 0.1% FBS) for 16 hours. After the starvation period was over, 10 μL of test agent in 5% DMSO in starvation media were added to the test wells and 10 μL of the vehicle (5% DMSO in starvation media) were added into the control wells. The final DMSO concentration in each well was 0.5%. Plates were incubated at 37° C. for 1 hour and the cells were then stimulated with 1 μg/mL PDGF-BB (R & D System) in the presence of 2 mM Na3VO4 for 8 minutes. The cells were washed once with 1 mm Na3VO4 in HBSS and lysed by adding 50 μL per well of lysis buffer. One hundred μL of dilution buffer were then added to each well and the diluted cell lysate was transferred to a 96-well goat ant-rabbit coated plate (Pierce), which was pre-coated with Rabbit anti Human PDGFRβ antibody (Santa Cruz). The plates were incubated at room temperature for 2 hours and washed seven times with 1% Tween 20 in PBS. HRP-PY20 (Santa Cruz) was diluted and added to the plate for a 30-minute incubation. Plates were then washed again and TMB peroxidase substrate (Kirkegaard & Perry) was added for a 10-minute incubation. One hundred μL of 0.09 N H2SO4 was added into each well of the 96-well plate to stop the reaction. Phosphorylation status was assessed by spectrophotometer reading at 450 nm. IC50 values were calculated by curve fitting using a four-parameter analysis.

[3] = target: T2, unphosphorylated VEGF-R2Δ50 (FLVK) (Homo sapiens, UniProt P35968, DEL940-989/E990V); assay: VEGF-R2 coupled spectrophotometric assay, unphosphorylated construct (FLVK); assay type: biochemical; details: for inhibition at 0.05 µM: percent inhibition at 50 nM
T2 construct: VEGF-R2Δ50 contains residues 806-939 and 990-1171; made in house; host or cells: baculovirus/insect cell system
From the text: This construct determines the ability of a test compound to inhibit tyrosine kinase activity. A construct (VEGF-R2Δ50) of the cytosolic domain of human vascular endothelial growth factor receptor 2 (VEGF-R2) lacking the 50 central residues of the 68 residues of the kinase insert domain was expressed in a baculovirus/insect cell system. Of the 1356 residues of full-length VEGF-R2, VEGF-R2Δ50 contains residues 806-939 and 990-1171, and also one point mutation (E990V) within the kinase insert domain relative to wild-type VEGF-R2. Autophosphorylation of the purified construct was performed by incubation of the enzyme at a concentration of 4 μM in the presence of 3 mM ATP and 40 mM MgCl2 in 100 mM HEPES, pH 7.5, containing 5% glycerol and 5 mM DTT, at 4° C. for 2 h. […] See Parast et al., Biochemistry, 37, 16788-16801 (1998).
The production of ADP from ATP that accompanies phosphoryl transfer was coupled to oxidation of NADH using phosphoenolpyruvate (PEP) and a system having pyruvate kinase (PK) and lactic dehydrogenase (LDH). The oxidation of NADH was monitored by following the decrease of absorbance at 340 nm ([…]=6.22 cm^−1 mM^−1) using a Beckman DU 650 spectrophotometer. Assay conditions for phosphorylated VEGF-R2Δ50 (indicated as FLVK-P in the tables below) were the following: 1 mM PEP; 250 μM NADH; 50 units of LDH/mL; 20 units of PK/mL; 5 mM DTT; […]; 1 mM ATP; and 25 mM MgCl2 in 200 mM HEPES, pH 7.5. Assay conditions for unphosphorylated VEGF-R2Δ50 (indicated as FLVK in the tables) were the following: 1 mM PEP; 250 μM NADH; 50 units of LDH/mL; 20 units of PK/mL; 5 mM DTT; […]; 3 mM ATP; and 60 mM MgCl2 and 2 mM MnCl2 in 200 mM HEPES, pH 7.5. Assays were initiated with 5 to 40 nM of enzyme. Ki values were determined by measuring enzyme activity in the presence of varying concentrations of test compounds. The percent inhibition at 50 nm (% inhibition@ 50 nm) was determined by linear least-squares regression analysis of absorbance as a function of time. The binding inhibitions were fitted to equation as described by Morrison. The data were analyzed using Enzyme Kinetic and Kaleidagraph software.

T2 sequence (P35968 with tags, fused parts or gaps DEL940-989/E990V limits assumed): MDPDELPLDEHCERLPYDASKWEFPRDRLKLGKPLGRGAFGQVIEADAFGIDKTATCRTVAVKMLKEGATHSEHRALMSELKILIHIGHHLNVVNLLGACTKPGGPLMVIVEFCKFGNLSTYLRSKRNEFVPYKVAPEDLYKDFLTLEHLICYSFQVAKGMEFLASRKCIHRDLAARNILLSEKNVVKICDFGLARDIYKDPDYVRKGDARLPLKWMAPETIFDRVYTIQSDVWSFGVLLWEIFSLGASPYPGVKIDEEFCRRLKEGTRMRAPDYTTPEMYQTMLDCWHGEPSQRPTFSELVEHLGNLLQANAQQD
T1 sequence (P09619 33-1106): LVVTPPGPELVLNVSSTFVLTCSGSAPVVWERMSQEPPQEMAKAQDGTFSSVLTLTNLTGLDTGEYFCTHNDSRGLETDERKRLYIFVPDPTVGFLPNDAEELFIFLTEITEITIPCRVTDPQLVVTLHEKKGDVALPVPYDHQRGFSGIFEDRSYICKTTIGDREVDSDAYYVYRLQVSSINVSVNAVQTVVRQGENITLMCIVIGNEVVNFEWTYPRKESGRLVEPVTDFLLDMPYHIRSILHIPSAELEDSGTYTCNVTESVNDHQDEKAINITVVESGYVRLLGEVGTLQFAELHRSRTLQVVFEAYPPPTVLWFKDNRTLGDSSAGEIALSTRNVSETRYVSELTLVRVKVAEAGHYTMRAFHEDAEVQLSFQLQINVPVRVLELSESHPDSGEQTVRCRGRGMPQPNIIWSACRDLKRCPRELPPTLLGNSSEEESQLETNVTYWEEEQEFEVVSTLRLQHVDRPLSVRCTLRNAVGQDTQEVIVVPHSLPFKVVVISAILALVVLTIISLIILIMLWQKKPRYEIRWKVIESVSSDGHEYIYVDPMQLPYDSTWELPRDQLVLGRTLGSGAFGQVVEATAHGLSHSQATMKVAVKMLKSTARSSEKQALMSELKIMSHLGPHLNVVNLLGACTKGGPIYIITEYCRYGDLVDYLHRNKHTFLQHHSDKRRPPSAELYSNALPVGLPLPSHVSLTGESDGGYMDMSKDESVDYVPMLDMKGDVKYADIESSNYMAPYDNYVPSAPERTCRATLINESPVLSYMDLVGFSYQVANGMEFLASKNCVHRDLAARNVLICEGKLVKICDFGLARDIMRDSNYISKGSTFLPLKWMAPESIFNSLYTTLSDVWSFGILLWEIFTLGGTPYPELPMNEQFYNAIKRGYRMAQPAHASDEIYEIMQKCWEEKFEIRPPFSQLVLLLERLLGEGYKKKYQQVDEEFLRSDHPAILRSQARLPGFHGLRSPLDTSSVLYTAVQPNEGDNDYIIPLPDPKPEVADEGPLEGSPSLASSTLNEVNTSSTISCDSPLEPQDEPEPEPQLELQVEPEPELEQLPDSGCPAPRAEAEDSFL

IC50 [2] | Ki [3] [pM] | inhibition at 0.05 µM [3] [%] | Structure (SMILES) | IC50 [1] [pM]
95000 pM and 152000 pM | – | – | CNC(=O)n1c(C)cc2cc(Nc3ccnc4cc(C(=O)N5CC[C@H](OC)C5)sc34)ccc21 [Example 1g, 5-[2-(3S-Methoxy-pyrrolidine-1-carbonyl)-thieno[3,2-b]pyridin-7-ylamino]-2-methyl-indole-1-carboxylic acid methylamide] | 1000
– | 720 | 96 | C#CCNC(=O)n1c(C)cc2cc(Nc3ccnc4cc(C(=O)N5CC[C@H](O)C5)sc34)ccc21 [Example 1j, 5-[2-(3S-Hydroxy-pyrrolidine-1-carbonyl)-thieno[3,2-b]pyridin-7-ylamino]-2-methyl-indole-1-carboxylic acid prop-2-ynylamide] | 149
155000 pM and 120000 pM | 640 | 93 | CNC(=O)n1c(C)cc2cc(Nc3ccnc4cc(C(=O)N5C[C@H](OC)[C@@H](OC)C5)sc34)ccc21 [Example 1r, 5-[2-(3S,4S-Dimethoxy-pyrrolidine-1-carbonyl)-thieno[3,2-b]pyridin-7-ylamino]-2-methyl-indole-1-carboxylic acid methylamide] | 301
– | 2100 | 87 | Cc1cc2cc(Nc3ccnc4cc(C(=O)N5C[C@H](O)C[C@H]5C(C)(C)O)sc34)ccc2n1C(=O)NC1CC1 [Example 3e] | 4900
– | 4170 | 74 | CNC(=O)n1c(C)cc2cc(Nc3cccc4cc(C(=O)N5C[C@H](O)C[C@H]5CO)sc34)ccc21 [Example 3i, 5-[2-((2S,4R)-4-Hydroxy-2-hydroxymethyl-pyrrolidine-1-carbonyl)-benzo[b]thiophen-7-ylamino]-2-methyl-indole-1-carboxylic acid methylamide] | 5500
5500 pM | 1560 | 97 | CO[C@H]1CCN(C(=O)c2cc3nccc(Oc4ccc5c(c4)cc(C)n5C(=O)NCC#CC4CC4)c3s2)C1 [Example 4i, 5-[2-(3S-Methoxy-pyrrolidine-1-carbonyl)-thieno[3,2-b]pyridin-7-yloxy]-2-methyl-indole-1-carboxylic acid (3-cyclopropyl-prop-2-ynyl)-amide] | 569
3800 pM | 271 | 99 | CO[C@@H]1CCN(C(=O)c2cc3nccc(Oc4ccc5c(c4)cc(C)n5C(=O)NCC#CC4CC4)c3s2)C1 [Example 4m, 5-[2-(3R-Methoxy-pyrrolidine-1-carbonyl)-thieno[3,2-b]pyridin-7-yloxy]-2-methyl-indole-1-carboxylic acid (3-cyclopropyl-prop-2-ynyl)-amide] | 370
3800 pM | 160 | 99 | CNC(=O)n1c(C)cc2c(F)c(Oc3ccnc4cc(C(=O)N5CCC[C@H]5COC)sc34)ccc21 [Example 5a, 4-Fluoro-5-[2-(2S-methoxymethyl-pyrrolidine-1-carbonyl)-thieno[3,2-b]pyridin-7-yloxy]-2-methyl-indole-1-carboxylic acid methylamide] | 140
– | 525 | 97 | CNC(=O)n1c(C)cc2c(F)c(Oc3ccnc4cc(C(=O)N5CC[C@H](O)C5)sc34)ccc21 [Example 5i, 4-Fluoro-5-[2-(3S-hydroxy-pyrrolidine-1-carbonyl)-thieno[3,2-b]pyridin-7-yloxy]-2-methyl-indole-1-carboxylic acid methylamide] | 110
28600 pM | 428 | 98 | C#CCNC(=O)n1c(C)c(Cl)c2c(F)c(Oc3ccnc4cc(C(=O)N5CC[C@H](OC)C5)sc34)ccc21 [Example 6a, 3-Chloro-4-fluoro-5-[2-(3S-methoxy-pyrrolidine-1-carbonyl)-thieno[3,2-b]pyridin-7-yloxy]-2-methyl-indole-1-carboxylic acid prop-2-ynylamide] | 427
26000 pM and 34000 pM | 477 | 99 | Cc1cc2cc(Oc3ccnc4cc(C(=O)N5CC[C@@H](N(C)C)C5)sc34)ccc2n1C(=O)NCCCO [Example 8i, 5-[(2-{[(3R)-3-(Dimethylamino)pyrrolidin-1-yl]carbonyl}thieno[3,2-b]pyridin-7-yl)oxy]-N-(3-hydroxypropyl)-2-methyl-1H-indole-1-carboxamide] | 170
4500 pM | 4 | 99 | CNC(=O)n1c(C)cc2cc(Oc3ccnc4cc(C(=O)N5CCC5)sc34)ccc21 [Example 8m, 5-[2-(Azetidine-1-carbonyl)-thieno[3,2-b]pyridin-7-yloxy]-2-methyl-indole-1-carboxylic acid methylamide] | 84
13000 pM | 667 | 84 | CO[C@H]1CCN(C(=O)c2cc3nccc(Oc4ccc5c(c4)cc(C)n5C(=O)NCC#N)c3s2)C1 [Example 9f, 5-[2-(3S-Methoxy-pyrrolidine-1-carbonyl)-thieno[3,2-b]pyridin-7-yloxy]-2-methyl-indole-1-carboxylic acid cyanomethyl-amide] | 680
31000 pM | 258 | 99 | CCNC(=O)n1c(C)cc2cc(Oc3ccnc4cc(C(=O)N5CC[C@H](O)C5)sc34)ccc21 [Example 9h, 5-[2-(3S-Hydroxy-pyrrolidine-1-carbonyl)-thieno[3,2-b]pyridin-7-yloxy]-2-methyl-indole-1-carboxylic acid ethylamide] | 900
